Results taken from patent US20020049157A1, “Use of proteasome inhibitors for treating cancer, inflammation, autoimmune disease, graft rejection and septic shock” (priority 1998, published 2002).

Legend:
Tonsillar B cells = assay: B cell proliferation induced with SAC plus IL-2 (3H-thymidine uptake); format: cell-based, human
Procedure: Lymphocytes were stimulated with various mitogens as indicated, and LAC at different concentrations was added at the beginning of the cultures. The cells were pulsed with 3H-thymidine between 48 h and 64 h. Samples were in triplicates. All the experiments were performed at least three times and similar results were obtained. Representative results are shown.
D: Tonsillar B cells stimulated with SAC (1:15,000 dilution) and IL-2 (100 μ/ml).
The role of proteasome in T cell activation and proliferation was first examined in PBMC, using the proteasome-specific inhibitor LAC. The PBMC were activated with various stimulants. LAC was added to the cells in the beginning of the culture (0 h) along with the stimulants. ^3H-thymidine uptake between 48 h and 64 h of 64 h cultures was used as a parameter for cell proliferation. […] Rather, it likely affects certain downstream events governing a more general process(es) in lymphocyte activation and proliferation.
Peripheral blood mononuclear cells (PBMC) and tonsillar T cells were prepared as described before (Luo et al., 1992, Transplantation 53:1071; Luo et al., 1993, Clin. & Exp. Immunol. 94:371). The cells were cultured in RPMI 1640 supplemented with 10% FCS, L-glutamine and antibiotics. ^3H-thymidine uptake was carried out as described previously (Luo et al., 1992, supra; Luo et al., 1993, supra).

Bik = assay: Immunoblotting of Bik in wild type Namalwa cells; format: cell-based, human; settings: 6 h; lactacystin 6 μM, staurosporine 0.3 μM
Procedure: Jurkat cells, wild type Namalwa cells and Bcl-xL transfected Namalwa cells were treated with medium (lanes 1), staurosporine (0.3 μM, lanes 2) and lactacystin (6 μM, lanes 3) for 6 H. The proteins from the mitochondrial fraction of these cells were analyzed by immunoblotting and the amount of Bik, Bcl-xL, Bax, and Bak evaluated. The same membranes were used sequentially and probed with different antibodies against these factors. A nonspecific band recognized by a monoclonal antibody against cytochrome […] (COX) was used as control for even sample loading in the lanes.

SMILES: CC(=O)N[C@@H](CSC(=O)[C@]1([C@@H](O)C(C)C)NC(=O)[C@H](C)[C@@H]1O)C(=O)O [LAC, lactacystin]
- inhibition of B cell proliferation (3H-thymidine uptake) (Tonsillar B cells; LAC added at 0 h): potently inhibited
- extent of inhibition of B cell proliferation (Tonsillar B cells; LAC at 5 μM): near-to-maximal inhibition
- accumulation of Bik in Namalwa cells (Bik): accumulates
